Several values for one entry are separate records, joined by “and”; a condition that tells them apart may be missing. Identical values can stand only once.
Assays:
[1] = system: Chaetomium globosum unspecific peroxygenase CglUPO, wild-type, SEQ ID NO 1; experiment: Enzyme kinetics of isophorone hydroxylation (GC-MS product quantification); type: biochemical; settings: 6.25-6400 µM substrate, 100 nM enzyme, 0.5 mM H2O2, 3 min, mean of three replicates with standard errors
Description: (§1) AaeUPO (isoform II, 46 kDa), the first UPO described in 2004 (R. Ullrich and M. Hofrichter, FEBS Lett. 2005, 579, 6247-6250), is a wild-type (i.e. non-recombinant) peroxygenase purified from cultures of A. aegerita TM-A1, grown in soybean-peptone medium. MroUPO is another wild-type peroxygenase (32 kDa) purified from cultures of M. rotula DSM-25031 (German Collection of Microorganisms and Cell Cultures, Braunschweig). CglUPO (36 kDa) is a third wild-type peroxygenase recently purified from cultures of C. globosum DSM-62110.
Reactions were carried out with 6.25-6400 µM substrate and 100 nM enzyme. They were initiated adding 0.5 mM H2O2 and stopped by vigorous shaking in 5 mM sodium azide. Reaction times in which the reaction velocity was linear were previously selected: 5 min for AaeUPO, 3 min for CglUPO and 1 min for rHinUPO. All reactions were performed in triplicates. Product quantification was carried out by GC-MS using external standard curves, and kinetic parameters - turnover number (kcat), Michaelis constant (Km) and catalytic efficiency (kcat/Km) - were obtained by fitting the data to the Michaelis-Menten equation, or the corresponding variation of this equation when substrate inhibition is occurring, using SigmaPlot (Systat Softwarwe Inc., San Jose, CA, USA). […]

[2] = system: CYP102A1 variants; settings: isophorone hydroxylation; when decoy molecules were used; range over variants; cited from earlier work
[3] = system: Humicola insolens unspecific peroxygenase rHinUPO, recombinant protein, SEQ ID NO 2; experiment: Enzyme kinetics of isophorone hydroxylation (GC-MS product quantification); type: biochemical; settings: 6.25-6400 µM substrate, 100 nM enzyme, 0.5 mM H2O2, 1 min, mean of three replicates with standard errors
Description: The rCciUPO (44 kDa) and rHinUPO recombinant enzymes were provided by Novozymes A/S. rCciUPO corresponds to the protein model 7249 from the sequenced C. cinerea genome available at the JGI (http://genome.jgi.doe.gov/Copci1) used in several studies (E. D. Babot, J. C. del Río, L. Kalum, A. T. Martínez and A. Gutiérrez, Biotechnol. Bioeng. 2013, 110, 2332; E. D. Babot, J. C. del Río, M. Cañellas, F. Sancho, F. Lucas, V. Guallar, L. Kalum, H. Lund, G. Gröbe, K. Scheibner, R. Ullrich, M. Hofrichter, A. T. Martínez and A. Gutiérrez, Appl. Environ. Microbiol. 2015, 81, 4130-4142; E. D. Babot, J. C. del Río, L. Kalum, A. T. Martínez and A. Gutiérrez, ChemCatChem 2015, 7, 283-290). The rHinUPO sequence has been more recently reported (Patent US 9908860 B2) and used for oxyfunctionalizations that are not catalyzed by other UPOs. Both UPOs were expressed in Aspergillus oryzae (patent WO/2008/119780).
Reactions were carried out with 6.25-6400 µM substrate and 100 nM enzyme. […] Product quantification was carried out by GC-MS using external standard curves, and kinetic parameters - turnover number (kcat), Michaelis constant (Km) and catalytic efficiency (kcat/Km) - were obtained by fitting the data to the Michaelis-Menten equation, or the corresponding variation of this equation when substrate inhibition is occurring, using SigmaPlot (Systat Softwarwe Inc., San Jose, CA, USA). […]

[4] = substrate: CC1=CC(=O)CC(C)(C)C1; experiment: as above; type: biochemical, Agrocybe aegerita; settings: other: isophorone hydroxylation; 6.25-6400 µM substrate, 100 nM enzyme, 0.5 mM H2O2, 5 min; mean of three replicates with standard errors
Description: as §1
Reactions were carried out with 6.25-6400 µM substrate and 100 nM enzyme. They were initiated adding 0.5 mM H2O2 and stopped by vigorous shaking in 5 mM sodium azide. Reaction times in which the reaction velocity was linear were previously selected: 5 min for AaeUPO, 3 min for CglUPO and 1 min for rHinUPO. All reactions were performed in triplicates. Product quantification was carried out by GC-MS using external standard curves, and kinetic parameters - turnover number (kcat), Michaelis constant (Km) and catalytic efficiency (kcat/Km) - were obtained by fitting the data to the Michaelis-Menten equation, or the corresponding variation of this equation when substrate inhibition is occurring, using SigmaPlot (Systat Softwarwe Inc., San Jose, CA, USA).
The analyses were performed with a Shimadzu GC-MS QP 2010 Ultra system, using a fused-silica DB-5HT capillary column (30 m × 0.25 mm internal diameter, 0.1 µm film thickness) from J&W Scientific. The oven was heated from 50 °C (1.5 min) to 90 °C (2 min) at 30 °C min^-1, and then from 90 °C to 250 °C (15 min) at 8 °C min^-1. The injection was performed at 250 °C and the transfer line was kept at 300 °C. Compounds were identified by comparing their mass spectra and retention times with those of the available authentic standards and with the NIST library.

CC1=CC(=O)CC(C)(C)C1 [isophorone, 3,5,5-Trimethyl-2-cyclohexen-1-one]
Km [1]: 243 ± 19.8 µM | kcat [1]: 4.4 s⁻¹ and 3.8 ± 0.1 s⁻¹ | Km [2]: 380 to 440 µM | turnover numbers [2]: 2.5 to 5.5 s⁻¹ | Km [3]: 288 ± 39.9 µM | kcat [3]: 23.3 ± 1.4 s⁻¹

B1: Agrocybe aegerita unspecific peroxygenase AaeUPO (isoform II), wild-type, SEQ ID NO 3 (Cyclocybe aegerita) (protein)
chain: EPGLPPGPLENSSAKLVNDEAHPWKPLRPGDIRGPCPGLNTLASHGYLPRNGVATPVQIINAVQEGLNFDNQAAVFATYAAHLVDGNLITDLLSIGRKTRLTGPDPPPPASVGGLNEHGTFEGDASMTRGDAFFGNNHDFNETLFEQLVDYSNRFGGGKYNLTVAGELRFKRIQDSIATNPNFSFVDFRFFTAYGETTFPANLFVDGRRDDGQLDMDAARSFFQFSRMPDDFFRAPSPRSGTGVEVVIQAHPMQPGRNVGKINSYTVDPTSSDFSTPCLMYEKFVNITVKSLYPNPTVQLRKALNTNLDFFFQGVAAGCTQVFPYGRD
notes: is a wild-type (i.e. non-recombinant) peroxygenase purified from cultures of A. aegerita TM-A1; made in house; host or cells: Agrocybe aegerita TM-A1 cultures (native producer, non-recombinant)
Km [4]: 1381.3 ± 196.7 µM | kcat [4]: 20.1 ± 1.1 s⁻¹ | kcat/Km [4]: 1.4±0.1 x 10^4 M^-1·s^-1
